According to the supplement of paper PMC11061612:

Experiments:
Assay in all cases: combination Emax (second highest fraction inhibited in the dose matrix, 72 h); higher = more inhibition; extreme values may be limits of the assay
[1] = tested on: CAL-51 (Breast Carcinoma)
Outline: (§1)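 Cell lines grown in DMEM/F12 or RPMI with 10% FBS were plated in 1536-well plates and held 24 hours at 37°C, 5% CO2 before 72 hours of exposure to two-drug dose matrices, with DMSO typically at 0.2%. CellTiter-Glo 2.0 luminescence gave viability, which was converted to inhibition. Vehicle wells were set to 0 and blank wells to 1. Combination Emax is the second-highest inhibition in the matrix, and Bliss excess is the observed combination effect minus the expected EA + EB − EA·EB, where EA and EB are the single-agent effects.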

[2] = tested on: CAL-54 (Kidney Carcinoma)
Outline: as §1

[3] = tested on: HARA (Squamous Cell Lung Carcinoma)
Outline: as §1

[4] = tested on: HCC-15 (Squamous Cell Lung Carcinoma)
Outline: as §1

[5] = tested on: HDLM-2 (Hodgkin's Lymphoma)
Outline: as §1

[6] = tested on: HO-1-u-1 (Oral Cavity Carcinoma)
Outline: as §1

[7] = tested on: K5 (Thyroid Gland Carcinoma)
Outline: as §1

[8] = tested on: KYSE-410 (Esophageal Squamous Cell Carcinoma)
Outline: as §1

[9] = tested on: LoVo (Colorectal Carcinoma)
Outline: as §1

NB14 (Neuroblastoma) = tested on: NB14 (Neuroblastoma)
Outline: as §1

NCI-H2795 (Mesothelioma) = tested on: NCI-H2795 (Mesothelioma)
Outline: as §1

[10] = tested on: NCI-H69 (Small Cell Lung Carcinoma)
Outline: as §1

[11] = tested on: OC-314 (Ovarian Carcinoma)
Outline: as §1

[12] = tested on: OVCAR-8 (Ovarian Carcinoma)
Outline: as §1

[13] = tested on: RPMI-6666 (Non-Cancerous)
Outline: as §1

[14] = tested on: RT-112 (Bladder Carcinoma)
Outline: as §1

[15] = tested on: SW1116 (Colorectal Carcinoma)
Outline: as §1

[16] = tested on: SW1271 (Small Cell Lung Carcinoma)
Outline: as §1

[17] = tested on: UMC-11 (Other Solid Carcinomas)
Outline: as §1

[18] = tested on: MDA-MB-468 (Breast Carcinoma)
Outline: as §1

Row | Structure (SMILES) | combination Emax [1] | combination Emax [2] | combination Emax [3] | combination Emax [4] | combination Emax [5] | combination Emax [6] | combination Emax [7] | combination Emax [8] | combination Emax [9] | combination Emax (NB14 (Neuroblastoma)) | combination Emax (NCI-H2795 (Mesothelioma)) | combination Emax [10] | combination Emax [11] | combination Emax [12] | combination Emax [13] | combination Emax [14] | combination Emax [15] | combination Emax [16] | combination Emax [17] | combination Emax [18]
1 | C[C@@H]1COCCN1c1cc(C2([S@](C)(=N)=O)CC2)nc(-c2ccnc3[nH]ccc23)n1 [AZD6738] + O=C(c1cc(Cc2n[nH]c(=O)c3ccccc23)ccc1F)N1CCN(C(=O)C2CC2)CC1 [Olaparib] (first compound max 10 µM, 7x7, partner max 10 µM) | 0.926 | 0.658 | 0.778 | 0.258 | 0.437 | 0.793 | 0.627 | 0.239 | 0.772 | 0.94 | 0.745 | 0.585 | 0.872 | 0.935 | 0.816 | 0.614 | 0.262 | 0.666 | 0.561 | –
2 | COc1nnc2ccc(N3CCC(c4ccc(OCCN5CCN(C)C(=O)[C@H]5C)cc4)CC3)nn12 [AZD5153] + CCN(CCO)CCCOc1ccc2c(Nc3cc(CC(=O)Nc4cccc(F)c4)[nH]n3)ncnc2c1 [AZD2811] (first compound max 1 µM, 7x7, partner max 1 µM) | 0.807 | 0.778 | 0.679 | 0.74 | 0.434 | 0.578 | 0.714 | 0.313 | 0.627 | 0.858 | 0.497 | 0.782 | 0.884 | 0.804 | 0.634 | 0.357 | 0.397 | 0.534 | 0.843 | –
3 | CS(=O)(=O)CCNCc1ccc(-c2ccc3ncnc(Nc4ccc(OCc5cccc(F)c5)c(Cl)c4)c3c2)o1 [Lapatinib] + NC1(c2ccc(-c3nc4ccn5c(=O)[nH]nc5c4cc3-c3ccccc3)cc2)CCC1 [MK-2206] (first compound max 10 µM, 7x7, partner max 10 µM) | – | 0.921 | 0.953 | – | 0.625 | 0.943 | 0.95 | – | 0.713 | 0.941 | 0.948 | 0.956 | 0.873 | – | 0.766 | 0.917 | 0.627 | 0.739 | – | 0.959
4 | Cc1nc(-c2cn3c(n2)-c2ccc(-c4cnn(C(C)(C)C(N)=O)c4)cc2OCC3)n(C(C)C)n1 [Taselisib] + O=C(Nc1ccc2[nH]nc(-c3ccncc3)c2c1)[C@@H]1CCN(CC(=O)N2CCN(c3ccc(-c4ncccn4)cc3)CC2)C1 [SCH772984] (first compound max 10 µM, 7x7, partner max 5 µM) | – | 0.816 | 0.871 | – | 0.345 | 0.933 | 0.954 | – | 0.738 | 0.697 | 1 | 0.716 | 0.747 | – | 0.716 | 0.802 | 0.521 | 0.531 | – | 0.747
5 | C[C@@H](c1ccc2nccn2c1)n1nnc2ncc(-c3cnn(C)c3)nc21 [Savolitinib] + CC1(C)CCC(CN2CCN(c3ccc(C(=O)NS(=O)(=O)c4ccc(NCC5CCOCC5)c([N+](=O)[O-])c4)c(Oc4cnc5[nH]ccc5c4)c3)CC2)=C(c2ccc(Cl)cc2)C1 [Venetoclax] (first compound max 1 µM, 7x7, partner max 1 µM) | 0.113 | 0.143 | 0.122 | 0.175 | 0.28 | 0.0993 | 0.0879 | 0.124 | 0.195 | 0.114 | 0.22 | 0.372 | 0.254 | 0.0706 | 0.243 | 0.156 | 0.145 | 0.161 | 0.13 | –
6 | C[C@@H](c1ccc2nccn2c1)n1nnc2ncc(-c3cnn(C)c3)nc21 [Savolitinib] + Cc1c2c(nn1C)CSCc1cc(n(C)n1)CSc1cc(c3ccccc3c1)OCCCc1c(C(=O)O)n(C)c3c-2c(Cl)ccc13 [AZD5991] (first compound max 1 µM, 7x7, partner max 1 µM) | 0.152 | 0.188 | 0.236 | 0.124 | 0.962 | 0.196 | 0.14 | 0.181 | 0.195 | 0.293 | 0.574 | 0.159 | 0.163 | 0.0965 | 0.523 | 0.602 | 0.218 | 0.166 | 0.275 | –
7 | CCc1c2c(nc3ccc(O)cc13)-c1cc3c(c(=O)n1C2)COC(=O)[C@]3(O)CC [SN-38] + O=C(c1cc(Cc2n[nH]c(=O)c3ccccc23)ccc1F)N1CCN(C(=O)C2CC2)CC1 [Olaparib] (first compound max 0.3 µM, 7x7, partner max 10 µM) | 0.801 | 0.788 | 0.852 | – | 0.473 | 0.695 | 0.505 | 0.423 | 0.717 | 0.967 | 0.771 | 0.692 | 1 | – | 0.998 | 0.762 | 0.214 | 0.758 | 0.24 | 0.773
